Holding throughout (format): cell-based
In one assay the target is T1, α2β1 integrin (Homo sapiens, UniProt P05556+P17301).
T1 construct: endogenous in cells; host or cells: gel-filtered human platelets of a single donor
The assay is described as follows: Platelet adhesion assay (human platelet adhesion to type I collagen). The method, then:
The inhibitory strength of the compounds of the present disclosure was analyzed as against platelet adhesion to type I collagen. Ninety-six well flat bottom microtiter plates (Immulon 2, Dynatech Laboratories, Chantilly, Va.) were coated with collagen, purified human fibrinogen, or bovine serum albumin, each dissolved in 50 mM NaHCO3 buffer, pH 8.0, containing 150 mM NaCl as previously described. See Bennett J S, Chan C, Vilaire G, Mousa S A, DeGrado W F. Agonist-Activated αvβ3 on Platelets and Lymphocytes Binds to the Matrix Protein Osteopontin. J Biol Chem. 272, 8137-814) (1997). Unoccupied protein binding sites on the wells were blocked with 5 mg/ml bovine serum albumin dissolved in the same buffer. Human platelets were isolated from blood anticoagulated with 0.1 volume 3.8% sodium citrate by gel-filtration using a 4 mM HEPES buffer, pH 7.4, containing 135 mM NaCl, 2.7 mM KCl, 5.6 mM glucose, 3.3 mM NaH2PO4, 0.35 mg/ml bovine serum albumin and various concentrations of CaCl2 or MgCl2 according to the experiment. One hundred μl aliquots of the gel-filtered platelet suspension containing 1-2×10^8 platelets were added to the protein-coated wells in the absence or presence of a platelet agonist. Following an incubation for 30 min at 37° C. without agitation, the plates were washed 4 times with the Tris-buffered NaCl, containing 2 mM MgCl2, pH 7.4, and the number of adherent platelets measured using the colorimetric assay reported by Bellavite P, Andrioli G, Guzzo P, et al. A colorimetric method for the measurement of platelet adhesion in microtiter plates. Anal Biochem. 216, 444-450 (1994). Briefly, 150 μl of a 0.1 M citrate buffer, pH 5.4, containing 5 mM p-nitrophenyl phosphate and 0.1% Triton X-100 was added to the wells after washing. After an incubation for 60 min at room temperature in the absence of ambient light, color was developed by the addition of 100 μl of 2N NaOH and, using EL800 Universal Microplate Reader (Bio-Tek Instruments, Inc., Winooski, Vt.), read in microtiter plate reader at 405 nm.
The potencies of the compounds of the present disclosure were determined by testing the ability of a range of concentrations of each compound to inhibit human platelet adhesion to soluble collagen under static conditions. Owing to the fact that soluble collagen is a specific ligand for α2β1 integrin, this is an accepted method of assessing α2β1 inhibition on platelets.
IC50 values were determined by using the platelets of a single donor. In cases where multiple assays were performed, the reported results reflect the average IC50 value derived from the separate assays.

The next assay concerns the target T2, α4β1 (Homo sapiens, UniProt P05556+P13612).
T2 construct: Jurkat cells expressing α4β1; Marcinkiewicz (Temple University, Philadelphia, Pa.); host or cells: Jurkat
The assay is described as follows: Cell adhesion assay to assess specificity: Jurkat cells on VCAM. As to the method: (§1) The ligands (3 μg/ml of collagen IV for […] or 3 μg/ml of collagen I for α2β1) for the test designed to assess the specificity of representative embodiments of the instant compounds for the α2β1 integrin were immobilized on 96-well flat microtiter plates (100 μl for each well) in PBS buffer solution overnight at 4° C. In the case of VCAM (3 μg/ml, for α4β1) and fibronectin (10 μg/ml, for α5β1), 20 mM acetic acid was used instead of PBS buffer solution. As those skilled in the art will recognize, VCAM is a known endothelial ligand for α4β1/VLA-4, and fibronectin is a known ligand for […]. In the case of α1β1 and α2β1, blocking was performed with 1% BSA in HBSS buffer solution containing Mg^2+ (but without Ca^2+) for 1 hour. In the case of α4β1 and α5β1, 1% BSA in HyQ HBSS buffer solution containing Ca^2+ and Mg^2+ was used. […] After centrifugation and washing with buffer solution containing 1% BSA, cells were re-suspended in same buffer solution (1×10^6 cells/ml) and incubated in the presence of a different concentration of inhibitors at room temperature for 15 minutes. Cells were added to the wells (100 μl/well) and incubated at 37° C. for 30 minutes. Unbound cells were washed out and bound cells were lysed by the addition of 0.5% Triton X-100.
(§2) The K562 cells expressing α5β1 integrin, Jurkat cells expressing α4β1, and K562 cells transfected with α1 and α2 integrins were provided by Dr. C. Marcinkiewicz (Temple University, Philadelphia, Pa.).
(§3) Plates were read using a Cytofluor 2350 fluorescence plate reader (Millipore, Bedford, Mass.) with a 485 nm (excitation) and 530 nm (emission).

The next assay concerns the target T3, α1β1 (Homo sapiens, UniProt P05556+P56199).
T3 construct: Marcinkiewicz (Temple University, Philadelphia, Pa.); host or cells: K562
In words: Cell adhesion assay to assess specificity: α1-transfected K562 cells on collagen IV. Conditions: read-out: % inhibition at 3 μM, α1β1. As to the method: as §1, §2, §3

In another assay the target is T4, α2β1 (Homo sapiens, UniProt P05556+P17301).
T4 construct: Marcinkiewicz (Temple University, Philadelphia, Pa.); host or cells: K562
In words: Cell adhesion assay to assess specificity: α2-transfected K562 cells on collagen I. As to the method: as §1, §2, §3

Setting [1] is: human platelet adhesion to type I (soluble, monomeric) collagen, static conditions, single donor, read-out: IC50.
Where [2] appears, read: platelets on collagen I, read-out: IC50 (nM), α2β1, Platelet, Collagen I.

Like-named read-outs stand apart in the source and are kept apart here.

T3 sequence (P56199 29-1179): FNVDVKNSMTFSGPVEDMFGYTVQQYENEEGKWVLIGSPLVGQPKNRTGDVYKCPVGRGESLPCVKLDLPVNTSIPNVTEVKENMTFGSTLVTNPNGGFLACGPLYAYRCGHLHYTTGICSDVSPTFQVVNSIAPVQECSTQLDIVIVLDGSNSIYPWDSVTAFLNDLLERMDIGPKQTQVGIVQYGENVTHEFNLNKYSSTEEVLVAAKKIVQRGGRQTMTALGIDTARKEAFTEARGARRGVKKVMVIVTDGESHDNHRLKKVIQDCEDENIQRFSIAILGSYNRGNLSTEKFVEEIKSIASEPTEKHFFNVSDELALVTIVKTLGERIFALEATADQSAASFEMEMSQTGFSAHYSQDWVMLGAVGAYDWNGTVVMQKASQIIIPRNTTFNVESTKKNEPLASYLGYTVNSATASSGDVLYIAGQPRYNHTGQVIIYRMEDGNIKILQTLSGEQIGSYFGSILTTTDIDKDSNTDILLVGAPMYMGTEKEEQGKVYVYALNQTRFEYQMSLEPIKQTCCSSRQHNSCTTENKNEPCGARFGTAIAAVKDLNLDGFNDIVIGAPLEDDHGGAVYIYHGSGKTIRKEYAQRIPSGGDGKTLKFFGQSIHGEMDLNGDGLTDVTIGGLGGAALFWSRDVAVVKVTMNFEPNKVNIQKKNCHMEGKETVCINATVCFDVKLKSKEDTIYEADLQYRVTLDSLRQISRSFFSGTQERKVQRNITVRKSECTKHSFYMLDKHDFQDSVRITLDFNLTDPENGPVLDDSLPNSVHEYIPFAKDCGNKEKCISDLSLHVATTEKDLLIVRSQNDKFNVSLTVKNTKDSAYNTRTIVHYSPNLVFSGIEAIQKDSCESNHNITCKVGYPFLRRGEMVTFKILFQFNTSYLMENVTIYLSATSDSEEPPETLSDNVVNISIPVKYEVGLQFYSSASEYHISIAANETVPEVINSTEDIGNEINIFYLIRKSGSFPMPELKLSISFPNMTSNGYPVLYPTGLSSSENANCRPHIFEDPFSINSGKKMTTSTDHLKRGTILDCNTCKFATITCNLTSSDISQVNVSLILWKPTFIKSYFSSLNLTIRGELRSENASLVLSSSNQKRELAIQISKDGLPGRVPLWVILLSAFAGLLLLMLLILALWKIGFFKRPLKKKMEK
T3 sequence (P05556 21-798): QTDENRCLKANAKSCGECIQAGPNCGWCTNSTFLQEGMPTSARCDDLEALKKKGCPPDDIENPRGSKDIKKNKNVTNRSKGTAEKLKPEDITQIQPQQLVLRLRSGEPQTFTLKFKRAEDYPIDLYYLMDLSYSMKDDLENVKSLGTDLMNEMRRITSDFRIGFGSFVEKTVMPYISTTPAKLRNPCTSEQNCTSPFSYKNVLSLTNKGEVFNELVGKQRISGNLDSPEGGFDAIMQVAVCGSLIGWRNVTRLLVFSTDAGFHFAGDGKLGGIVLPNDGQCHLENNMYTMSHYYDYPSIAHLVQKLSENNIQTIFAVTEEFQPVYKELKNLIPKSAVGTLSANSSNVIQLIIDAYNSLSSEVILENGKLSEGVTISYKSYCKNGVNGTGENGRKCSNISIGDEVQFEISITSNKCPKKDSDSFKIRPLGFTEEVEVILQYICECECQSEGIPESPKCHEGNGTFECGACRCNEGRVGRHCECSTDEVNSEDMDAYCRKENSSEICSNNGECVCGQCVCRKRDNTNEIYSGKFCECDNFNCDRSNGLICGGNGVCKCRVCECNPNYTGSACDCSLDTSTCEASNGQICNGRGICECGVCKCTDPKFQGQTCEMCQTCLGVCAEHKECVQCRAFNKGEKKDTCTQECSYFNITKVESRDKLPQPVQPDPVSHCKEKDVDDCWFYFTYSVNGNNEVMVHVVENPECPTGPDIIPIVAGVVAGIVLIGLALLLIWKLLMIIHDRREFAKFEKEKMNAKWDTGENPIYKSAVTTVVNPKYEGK
T2 sequence (P13612 34-1032): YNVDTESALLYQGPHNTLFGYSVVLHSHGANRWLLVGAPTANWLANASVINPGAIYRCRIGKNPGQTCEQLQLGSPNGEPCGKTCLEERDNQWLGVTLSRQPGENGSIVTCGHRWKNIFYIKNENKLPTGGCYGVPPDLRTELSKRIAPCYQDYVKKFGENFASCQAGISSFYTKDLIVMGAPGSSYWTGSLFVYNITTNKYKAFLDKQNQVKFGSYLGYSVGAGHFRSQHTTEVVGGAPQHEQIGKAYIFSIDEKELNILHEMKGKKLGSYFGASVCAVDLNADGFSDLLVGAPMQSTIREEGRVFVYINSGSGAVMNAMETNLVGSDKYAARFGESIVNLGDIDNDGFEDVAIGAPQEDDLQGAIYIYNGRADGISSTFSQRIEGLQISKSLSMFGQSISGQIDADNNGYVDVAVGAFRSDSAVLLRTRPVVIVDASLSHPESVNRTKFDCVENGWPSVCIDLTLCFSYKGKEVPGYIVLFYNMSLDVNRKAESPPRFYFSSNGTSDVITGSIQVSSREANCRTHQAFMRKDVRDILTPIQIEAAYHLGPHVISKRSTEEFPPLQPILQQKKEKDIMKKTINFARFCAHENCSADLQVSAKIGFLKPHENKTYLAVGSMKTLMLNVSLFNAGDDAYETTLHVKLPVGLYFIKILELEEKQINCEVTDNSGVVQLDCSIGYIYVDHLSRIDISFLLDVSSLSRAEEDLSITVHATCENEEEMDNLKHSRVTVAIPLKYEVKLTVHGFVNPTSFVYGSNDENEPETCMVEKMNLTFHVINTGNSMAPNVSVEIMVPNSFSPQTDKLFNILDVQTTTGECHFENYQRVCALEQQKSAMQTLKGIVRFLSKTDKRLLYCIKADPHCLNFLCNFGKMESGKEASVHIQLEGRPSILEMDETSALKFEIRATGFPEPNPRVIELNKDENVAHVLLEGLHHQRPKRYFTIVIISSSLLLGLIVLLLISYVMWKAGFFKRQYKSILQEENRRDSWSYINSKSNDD
T2 sequence (P05556 21-798): as the sequence (P05556 21-798) above
T1 sequence (P17301 30-1181): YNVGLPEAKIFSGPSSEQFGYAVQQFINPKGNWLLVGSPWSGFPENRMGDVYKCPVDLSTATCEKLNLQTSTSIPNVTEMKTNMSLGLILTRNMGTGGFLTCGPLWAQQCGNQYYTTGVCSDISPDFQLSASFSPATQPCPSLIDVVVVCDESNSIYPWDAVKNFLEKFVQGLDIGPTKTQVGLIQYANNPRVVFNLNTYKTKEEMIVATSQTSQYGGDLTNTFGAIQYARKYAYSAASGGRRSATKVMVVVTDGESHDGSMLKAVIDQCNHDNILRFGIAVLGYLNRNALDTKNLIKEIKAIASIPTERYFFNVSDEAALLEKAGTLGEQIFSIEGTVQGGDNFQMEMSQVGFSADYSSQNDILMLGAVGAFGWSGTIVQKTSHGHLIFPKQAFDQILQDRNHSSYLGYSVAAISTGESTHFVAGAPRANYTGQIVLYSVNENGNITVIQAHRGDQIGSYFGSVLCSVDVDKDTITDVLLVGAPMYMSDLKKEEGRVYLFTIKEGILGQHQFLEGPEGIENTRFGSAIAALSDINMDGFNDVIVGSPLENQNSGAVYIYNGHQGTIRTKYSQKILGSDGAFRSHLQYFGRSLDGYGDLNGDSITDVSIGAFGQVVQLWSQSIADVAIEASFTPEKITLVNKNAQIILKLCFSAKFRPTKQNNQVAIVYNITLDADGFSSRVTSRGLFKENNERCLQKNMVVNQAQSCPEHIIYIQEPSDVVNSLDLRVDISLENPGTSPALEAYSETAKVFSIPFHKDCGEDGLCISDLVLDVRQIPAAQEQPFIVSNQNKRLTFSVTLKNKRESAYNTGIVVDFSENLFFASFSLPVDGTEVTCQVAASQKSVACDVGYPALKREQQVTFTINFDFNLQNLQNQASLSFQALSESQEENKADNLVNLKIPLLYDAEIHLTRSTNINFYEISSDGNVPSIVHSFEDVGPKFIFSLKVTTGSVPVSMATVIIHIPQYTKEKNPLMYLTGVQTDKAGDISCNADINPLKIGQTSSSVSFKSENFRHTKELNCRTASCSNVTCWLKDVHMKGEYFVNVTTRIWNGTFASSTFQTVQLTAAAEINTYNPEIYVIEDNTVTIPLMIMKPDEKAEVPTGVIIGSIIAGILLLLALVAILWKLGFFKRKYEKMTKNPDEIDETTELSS
T1 sequence (P05556 21-798): as the sequence (P05556 21-798) above
T4 sequence (P17301 30-1181): as the sequence (P17301 30-1181) above
T4 sequence (P05556 21-798): as the sequence (P05556 21-798) above

As to `Nc1ccc(CNC(=O)NC[C@H](NC(=O)[C@@H]2CCCN2S(=O)(=O)c2ccccc2)C(=O)O)cc1` [Compound 30, 3-[3-(4-Amino-benzyl)-ureido]-2-[(1-benzenesulfonyl-pyrrolidine-2-carbonyl)-amino]-propionic acid], the 50% inhibitory concentration (IC50) (in general, the point on the concentration scale where inhibition reaches its midpoint) stood at 23 nM at α2β1 integrin (setting [1]), 23 nM at α2β1 integrin (setting [2]), 1970 nM against α4β1 and 102 nM on α2β1. The inhibition – broadly, the change of the read-out against control, counted positive when it falls – at 3 µM at α1β1 turned out to be 22%.
For `Cc1cc(C)cc(S(=O)(=O)N2CCC[C@H]2C(=O)N[C@@H](CNC(=O)NCc2ccccc2)C(=O)O)c1` [Compound 31, 3-(3-Benzyl-ureido)-2-{[1-(3,5-dimethyl-benzenesulfonyl)-pyrrolidine-2-carbonyl]-amino}-propionic acid], the IC50 at α2β1 integrin (setting [1]) was 29 nM; at α2β1 integrin (setting [2]) it was 29 nM; at α4β1 it was 740 nM; at α2β1, 89 nM. Further, the inhibition at 3 µM on α1β1 was 26%.
As to `O=C(NCc1ccccc1)NC[C@H](NC(=O)[C@@H]1CCCN1S(=O)(=O)c1cc(Cl)cc(Cl)c1)C(=O)O` [Compound 48, 3-(3-Benzyl-ureido)-2-{[1-(3,5-dichloro-benzenesulfonyl)-pyrrolidine-2-carbonyl]-amino}-propionic acid], the half-inhibitory concentration (IC50) at α2β1 integrin (setting [1]) was 17 nM; on α2β1 integrin (setting [2]) it was 17 nM; on α4β1, 637 nM; against α2β1 it was 83 nM. At α1β1, the inhibition at 3 µM amounted to 32%.
